Data set [1] concerns pentobarbital-induced heart failure. In words: Pentobarbital-induced heart failure in rats. The format is in vivo, rat (Sprague-Dawley). To be noted: for ED40: Rattus norvegicus, iv; for heart rate, maximum recovery dose: bracketed value under RD40 heart rate.
Method: Adult male Sprague-Dawley rats (350-450 g) were used in this example. Animals were anesthetized using sodium pentobarbital (40-50 mg/kg, i.p.) and placed supine on a heated (37° C.) surgical table. A 7F pressure tipped catheter (Millar) was inserted into the left carotid artery and advanced into the left ventricle of the heart to measure left ventricular pressure (LVP), dP/dt and heart rate (HR). Mean arterial blood pressure (MABP) was monitored via a PE-50 catheter placed into a femoral artery. The right jugular vein and a femoral vein were catheterized with PE-10 tubing for infusion of the test compounds and pentobarbital, respectively.
Following bilateral cervical vagotomy, a 15 gauge blunt needle was inserted into the trachea via a midcervical tracheostomy to ventilate the animals (60/minute, TV=2.3 mL) Each animal was allowed a 5-10 minute period to stabilize and control measurements were recorded. A dose of 60-70 mg/kg of pentobarbital wa then administered slowly over a 5 minute period via the femoral vein until MABP was stabilized at 60 mm Hg, at which time an infusion of 0.2 mg/kg/minute of pentobarbital was begun and continued throughout the experiment. Each animal was then allowed 10-15 minutes to stabilize and values representing heart failure were recorded. Control and test compounds were tested in a cumulative-dose manner using at least four doses. Dose-related effects, e.g., dP/dt and MABP were continually monitored during a 15 minute recovery period between each dose. At the time of the peak dP/dt response during each recovery period, values for all four variables were recorded. The animals were sacrificed using a lethal injection of pentobarbital 15 minutes following the last dose of the test compound. Only one compound was administered to each animal.
The RD40 is defined as the dose of compound required to achieve a 40% recovery in the variable (dP/dt, MABP) being measured. It was calculated for each compound using an SAS® probit analysis on a Vax computer. Briefly, the program transforms the dose into log 10 and calculates the line of least squares using the mean value for recovery at each dose. In most instances the RD40 was then extrapolated, but in those instances where a full dose-response curve was not achieved because of the limited solubility of the compound, the RD40 was estimated.
In the next data set the test system is responses to adenosine. To be noted: all tissues studied, except rat hippocampus; cited from earlier work.
Data set [2] relates to histamine-induced bronchoconstriction. In words: Reversal of histamine-induced bronchoconstriction in the anesthetized guinea pig. As to conditions: guinea pigs; for ED50: Cavia porcellus, iv, dose required to reverse the histamine response by 50%; for maximum effect (maximum percent reversal of histamine-induced bronchoconstriction): i.v. The format is in vivo. The method, then: Reversal of histamine-induced bronchoconstriction in the anesthetized guinea pig
A modification of the general method of H. Konzett and R. Rossler [Naunyn-Schmiedeberg's Arch. Pharmakol.
Male Duncan-Hartley guinea pigs (400-600) were anesthetized using an intratraperitoneal injection of urethane (1.5 g/kg). After the neck area was shaved, the animal was placed in the dorsal recumbent position on a Narco temperature controlled surgical board (37° C.) to maintain body temperature. Following a midline neck incision, the carotid artery and jugular vein were cannulated using PE50 polyethylene tubing. Both catheters were flushed with heparinized saline (20 U/mL) to prevent clotting. The trachea was then cannulated using a 15 gauge Leuer stub and was connected to a Harvard Apparatus small animal respirator. The animal was ventilated at a constant rate and volume (52 breaths/minute and 1 mL room air/[…] body weight). Airway pressure was measured using a Statham pressure transducer connected to the side port of the tracheal cannula. The arterial blood pressure was measured using a Statham pressure transducer connected to the carotid artery. Both transducers were connected to a Gould chart recorder to produce the desired physiographs.
After allowing the animal to stabilize for 10 minutes, aerosolized histamine (0.01%) was delivered to the airways using a DeVilbiss ultrasonic nebulizer connected in-line between the respirator and the guinea pig. After the maximum bronchoconstriction was reached, as evidenced by a maximum plateau in airway pressure, an injection of vehicle (0.6 mL) was administered via the jugular vein. […] At the end of the experiment, terbutaline sulfate (1 mg/mL), a beta agonist, was injected i.v. to determine if further bronchodilation could be achieved The nebulizer was then turned off and the minimum airway pressure was recorded to determine the final baseline pressure.
ED50 (mg/kg) values and maximum effect (%) were calculated using SAS and PROBIT computer analyses. […] The maximum effect is the maximum percent reversal of histamine-induced bronchoconstriction produced by the test compound.

The subject of data set [3] is basal heart rate and basal blood pressure. Description: Cardiovascular effects (basal heart rate and basal blood pressure) in guinea pigs. The format is in vivo, guinea pig. As to conditions: i.v., at 2 × histamine-reversal ED50, * = not significant. Here is the method:
Cardiovascular effects (basal heart rate and basal blood pressure) in guinea pigs
Male guinea pigs were anesthetized with urethane and the carotid artery and jugular vein were cannulated. Aortic blood pressure was recorded from a pressure transducer and the signal was integrated to give a heart rate signal.
Each animal received a single intravenous injection of one compound. The dose of each compound was based upon the ED50 value from the reversal of histamine-induced bronchoconstriction in the anesthetized guinea pig. Thus the various compounds were studied at equipotent bronchodilator doses (2×ED50). A group of control animals received injections of vehicle only. Changes in heart rate and blood pressure from pre-injection baseline values produced by drugs or vehicle were compared.

Data set [4] concerns A1 and A2 adenosine receptors. As to conditions: A1 versus A2; cited from earlier work.
For data set [5] the following is noted: bronchial asthma; cited from earlier work.
The conditions of data set [6]: cited from earlier work.
The mark [7] stands for this setting: rats, i.v., dose for 40% recovery in dP/dt, extrapolated or estimated by probit, read-out: RD40, dP/dt.
[8] abbreviates: rats, i.v., extrapolated or estimated by probit, read-out: RD40, heart rate.

Read-outs that look alike come from different tables or passages of the source.

Consider `CCCn1c(=O)[nH]c(=O)c2[nH]cnc21` [Enprofylline, 3-propylxanthine], for which, in data set [1] (setting [7]), the ED40 is 48 mg/kg. The ED40 in data set [1] (setting [8]) was 93 mg/kg. Moreover, in data set [1] (rats, i.v.), the “dP/dt, maximum recovery” value was determined as 30% and the “heart rate, maximum recovery dose” value is 50 mg/kg. In addition, the “effectiveness in diminishing responses to adenosine” value in the data set on responses to adenosine is given as “much less effective than theophylline”. In addition, in data set [2], the ED50 was found to be 13.1 ± 3.1 mg/kg and the “maximum effect (maximum percent reversal of histamine-induced bronchoconstriction)” value amounted to 84.8 ± 3.6%. Further, in data set [3], the Basal blood pressure is reported as 76 ± 10% and the Basal heart rate amounted to 120 ± 6%.

Take `CCCn1c(=O)c2[nH]c([C@H]3CC[C@H](O)C3)nc2n(CCC)c1=O` (relative stereo) [trans, trans-8-(3-hydroxycyclopentyl)-1,3-dipropylxanthine]: the ED40 in data set [1] (setting [7]) was 7.8 mg/kg. Moreover, the ED40 in data set [1] (setting [8]) is 3.1 mg/kg. In addition, in data set [1] (rats, i.v.), the “dP/dt, maximum recovery” value is 71% and the “heart rate, maximum recovery dose” value was 120 mg/kg. In data set [2], the ED50 turned out to be 11.6 ± 1.6 mg/kg and the “maximum effect (maximum percent reversal of histamine-induced bronchoconstriction)” value stood at 78.5 ± 4.0%. In addition, in data set [3], the Basal blood pressure was determined as 96 ± 8% and the Basal heart rate is given as 107 ± 5%.

Regarding `CCCn1c(=O)c2[nH]c(C3CCC(O)C3)nc2n(CCC)c1=O` (mixture of isomers) [cis/trans], the ED40 in data set [1] (setting [7]) was 19 mg/kg. For the same molecule, the ED40 in data set [1] (setting [8]) is 20 mg/kg. Further, in data set [1] (rats, i.v.), the “dP/dt, maximum recovery” value was determined as 30% and the “heart rate, maximum recovery dose” value turned out to be 30 mg/kg. Moreover, in data set [2], the ED50 was 20.3 ± 4.6 mg/kg and the “maximum effect (maximum percent reversal of histamine-induced bronchoconstriction)” value turned out to be 64.0 ± 4.8%. Besides, in data set [3], the Basal blood pressure is recorded as 65 ± 3% and the Basal heart rate turned out to be 86 ± 4%.

Take `Cn1c(=O)c2c(ncn2C)n(C)c1=O` [caffeine]: the “effectiveness in displacing ligands from both the A1 and A2 adenosine receptors” value in data set [4] is given as “about equally effective”.

Take `Cn1c(=O)c2[nH]cnc2n(C)c1=O` [Theophylline]: in data set [1] (read-out: RD40, dP/dt), the ED40 stood at 18 mg/kg. In data set [1] (read-out: RD40, heart rate), the ED40 is 94 mg/kg. Moreover, in data set [1] (rats, i.v.), the “dP/dt, maximum recovery” value was 50% and the “heart rate, maximum recovery dose” value stood at 50 mg/kg. For the same molecule, the vital capacity entry in data set [5] was “demonstrable increase in vital capacity”. For the same molecule, in data set [6] (in vivo), the cardiac stimulation entry is recorded as “sometimes powerful cardiac stimulation”, the perfusion of organs entry was “increased perfusion of most organs” and the peripheral vascular resistance entry is on record as “modest decreases in peripheral vascular resistance”. Further, in data set [6] (therapeutic doses, effect short-lived in man), the heart rate result is given as “modest increases in heart rate”. Moreover, in data set [2], the ED50 was 35.1 ± 5.3 mg/kg and the “maximum effect (maximum percent reversal of histamine-induced bronchoconstriction)” value was 72.8 ± 6.6%. In data set [3], the Basal blood pressure is 66 ± 8% and the Basal heart rate stood at 132 ± 4%. In addition, the “effectiveness in displacing ligands from both the A1 and A2 adenosine receptors” value in data set [4] was “about equally effective”.

As to `CCCn1c(=O)c2[nH]c([C@H]3CC[C@@H](O)C3)nc2n(CCC)c1=O` (relative stereo) [cis, cis-8-(3-hydroxycyclopentyl)-1,3-dipropylxanthine], the ED40 in data set [1] (setting [7]) was 17.7 mg/kg. In addition, in data set [1] (setting [8]), the ED40 is 120 mg/kg. Also, in data set [1] (rats, i.v.), the “dP/dt, maximum recovery” value came out at 53% and the “heart rate, maximum recovery dose” value turned out to be 20 mg/kg. Besides, in data set [2], the ED50 was determined as 14.1 ± 3.6 mg/kg and the “maximum effect (maximum percent reversal of histamine-induced bronchoconstriction)” value is reported as 72.8 ± 6.8%. Further, in data set [3], the Basal blood pressure was 90 ± 5% and the Basal heart rate was determined as 106 ± 3%.

Consider `Nc1cc(-c2ccncc2)c[nH]c1=O` [Amrinone], for which, in data set [1] (setting [7]), the ED40 was 4.12 mg/kg. The ED40 in data set [1] (setting [8]) was 77 mg/kg. Also, in data set [1] (rats, i.v.), the “dP/dt, maximum recovery” value came to 63% and the “heart rate, maximum recovery dose” value turned out to be 10 mg/kg.

What is called ED50 is the dose that gives a 50% effect, or the effect in half of the subjects.

(Values after US5175290A, “8-(oxo-substituted cycloalkyl)xanthines” (Marion Merrell Dow Inc., priority 1988, dated 1992).)
